The labels stand for the following.
T1: Angiotensin Converting Enzyme (ACE) from rabbit lung (rabbit) (UniProt P12822)
T1 sequence: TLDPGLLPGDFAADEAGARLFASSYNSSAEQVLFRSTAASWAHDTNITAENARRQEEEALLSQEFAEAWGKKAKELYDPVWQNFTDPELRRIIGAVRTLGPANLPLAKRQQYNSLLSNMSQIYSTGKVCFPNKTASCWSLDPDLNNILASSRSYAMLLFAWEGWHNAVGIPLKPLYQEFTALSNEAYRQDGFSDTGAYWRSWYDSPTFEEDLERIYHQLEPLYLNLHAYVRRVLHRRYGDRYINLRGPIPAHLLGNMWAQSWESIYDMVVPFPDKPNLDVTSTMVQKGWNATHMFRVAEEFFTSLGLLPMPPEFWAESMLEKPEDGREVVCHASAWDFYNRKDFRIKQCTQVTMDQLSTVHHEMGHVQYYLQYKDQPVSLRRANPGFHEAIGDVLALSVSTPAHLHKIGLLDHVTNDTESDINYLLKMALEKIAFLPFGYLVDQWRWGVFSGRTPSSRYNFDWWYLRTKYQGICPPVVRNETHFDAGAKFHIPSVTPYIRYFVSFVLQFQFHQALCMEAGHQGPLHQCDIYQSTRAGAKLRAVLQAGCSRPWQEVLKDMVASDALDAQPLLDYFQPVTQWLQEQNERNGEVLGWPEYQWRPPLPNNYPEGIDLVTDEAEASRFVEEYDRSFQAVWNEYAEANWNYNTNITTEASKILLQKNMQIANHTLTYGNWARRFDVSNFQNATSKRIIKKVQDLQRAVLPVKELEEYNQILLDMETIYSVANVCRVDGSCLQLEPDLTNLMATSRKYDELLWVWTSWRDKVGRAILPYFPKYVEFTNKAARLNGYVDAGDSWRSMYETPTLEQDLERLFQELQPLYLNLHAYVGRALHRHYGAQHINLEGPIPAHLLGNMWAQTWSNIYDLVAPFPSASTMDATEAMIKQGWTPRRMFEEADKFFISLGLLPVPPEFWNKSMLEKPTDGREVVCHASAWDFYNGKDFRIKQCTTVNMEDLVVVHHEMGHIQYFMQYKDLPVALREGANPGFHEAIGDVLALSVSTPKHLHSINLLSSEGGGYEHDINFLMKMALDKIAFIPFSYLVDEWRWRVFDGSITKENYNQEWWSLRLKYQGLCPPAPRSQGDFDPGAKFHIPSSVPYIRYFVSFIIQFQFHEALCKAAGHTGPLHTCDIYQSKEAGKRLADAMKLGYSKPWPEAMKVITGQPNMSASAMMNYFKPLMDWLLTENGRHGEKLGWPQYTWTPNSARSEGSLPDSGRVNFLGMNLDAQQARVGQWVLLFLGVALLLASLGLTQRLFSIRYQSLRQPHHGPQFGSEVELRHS

T2: Angiotensin Converting Enzyme (ACE) from rabbit lung (Oryctolagus cuniculus, UniProt P12822)
T2 construct: Angiotensin Converting Enzyme (ACE) from rabbit lung; purchased Sigma-Aldrich (St. Louis, MO, USA); host or cells: rabbit lung (tissue-derived)
T2 sequence (P12822 34-1310): T1 sequence

Ends that are not written are not given here.

In one test the target is T1, Angiotensin Converting Enzyme (ACE) from rabbit lung (rabbit).
Test: not given
Conditions: not given
The molecule LAGNPAGR had an IC50 of ACE inhibitory activity (enzyme activity on HHL substrate, OPA fluorescence, 37 °C, pH 8.3) of 148 μM.

As to HIGNILSL, the IC50 of ACE inhibitory activity (enzyme activity on HHL substrate, OPA fluorescence, 37 °C, pH 8.3) stood at 36.7 μM.

As to MPGVPGPIQR, the IC50 of ACE inhibitory activity (enzyme activity on HHL substrate, OPA fluorescence, 37 °C, pH 8.3) was 54.8 μM.

Take PNYHPSPR: the IC50 of ACE inhibitory activity (enzyme activity on HHL substrate, OPA fluorescence, 37 °C, pH 8.3) was found to be 19 μM.

For the molecule GHIITVAR, the IC50 of ACE inhibitory activity (enzyme activity on HHL substrate, OPA fluorescence, 37 °C, pH 8.3) is 3.6 μM.

AGALGDSVTVTR registered an IC50 of ACE inhibitory activity (enzyme activity on HHL substrate, OPA fluorescence, 37 °C, pH 8.3) of 68.5 μM.

As to INTLSGR, the IC50 of ACE inhibitory activity (enzyme activity on HHL substrate, OPA fluorescence, 37 °C, pH 8.3) was found to be 150 μM.

The molecule AFPAGAAHW had an IC50 of ACE inhibitory activity (enzyme activity on HHL substrate, OPA fluorescence, 37 °C, pH 8.3) of 29 μM.

Consider HIITLGR, for which the IC50 of ACE inhibitory activity (enzyme activity on HHL substrate, OPA fluorescence, 37 °C, pH 8.3) worked out at 74.7 μM.

The molecule FMPGVPGPIQR returned an IC50 of ACE inhibitory activity (enzyme activity on HHL substrate, OPA fluorescence, 37 °C, pH 8.3) of 11.1 μM.

The next test deals with ACE.
Test: not given
The settings on record: peptide from sesame protein hydrolyzed by alcalase; ref [20]; cited from earlier work. Details: method as in doi:10.1007/s10989-015-9471-y.
With YAHYSYA, the “IC50 value, ACE inhibition” value was 600 µg/mL.

Still in this test, the particulars now being: peptide from sesame protein hydrolyzed by alcalase; ref [20]; read-out: IC50 value, ACE inhibition; cited from earlier work.
On to YAHYSYA, for which the IC50 was 687 µM.

The target in a further test is T2, Angiotensin Converting Enzyme (ACE) from rabbit lung. Briefly: ACE inhibitory activity assay (HHL substrate, OPA fluorescence). The test is classed as biochemical. The settings on record: chemically synthesized peptides identified from peak 4; mean ± SD, n = 3; read-out: IC50 Value inhibiting ACE activity. An excerpt: White sesame (Sesamum indicum L.) seeds were purchased from China Oil and Foodstuffs Corporation (Beijing, China). […] Pepsin (3000-3500 NFU/g), trypsin (250.N.F.U/mg), and α-chymotrypsin (1200 u/mg) were obtained from Solarbio Science and Technology Co., Ltd. (Beijing, China). Nanofiltration and ultrafiltration membranes were purchased from Rising Sun Membrane Technology Co., Ltd. (Beijing, China). All other reagents used in this study were of analytical grade. The ACE inhibitory activity was measured by using cary eclipse fluorescence spectrophotometer (Agilent Technologies Australia Pty Ltd., Mulgrave, Australia) according to a modified method of Li et al.. The sample was dissolved by distilled water to the appropriate concentration and the 96-well plate was used as the reaction vessel. Briefly, 30 μL of HHL substrate containing 0.3 mol/L NaCl in 50 mM borate buffer (pH 8.3) and 15 μL of samples were mixed. […] The reaction was stopped by using 125 μL of 1.2 mol/L NaOH. Finally, 30 μL of methanol solution containing 2% OPA was added, mixed evenly, and then stood at room temperature for 20 min. The derivative reaction was terminated by adding 40 μL of 6 mol/L HCl. The reaction solution was diluted 10 times and added into the fluorescence cell. The fluorescence absorption intensity was measured within 30–90 min. […] All assays were performed in triplicate. ACE inhibitory activity was calculated by using the following equation:ACE inhibitory activity (%) = [1 − (a−c)/(b−d)] × 100(2) where a is the fluorescence absorption intensity in the presence of both ACE and inhibitor, b is the fluorescence absorption intensity in the presence of ACE but not inhibitor, c is the fluorescence absorption intensity in the presence of inhibitor but not ACE, d is the fluorescence absorption intensity in the absence of both ACE and inhibitor.
As for AFPAGAAHW, the IC50 was 29 ± 0.2 µM.

Consider AGALGDSVTVTR, for which the IC50 amounted to 68.49 ± 0.14 µM.

Take FMPGVPGPIQR: the IC50 came to 11.1 ± 0.15 µM.

GHIITVAR: the IC50 came to 3.6 ± 0.1 µM.

Turning to HIGNILSL, the IC50 was found to be 36.69 ± 0.33 µM.

For the molecule HIITLGR [HIITLGR], the IC50 is 74.65 ± 0.13 µM.

With INTLSGR [INTLSGR], the IC50 amounted to 149.6 ± 0.33 µM.

Turning to LAGNPAGR, the IC50 turned out to be 148.4 ± 0.35 µM.

On to MPGVPGPIQR, for which the IC50 came to 54.79 ± 0.37 µM.

With PNYHPSPR, the IC50 is 19 ± 0.26 µM.

Usually IC50 stands for the concentration that inhibits the measured activity by half.

These data come from article PMC7037947, “Novel ACE Inhibitory Peptides Derived from Simulated Gastrointestinal Digestion in Vitro of Sesame (Sesamum indicum L.) Protein and Molecular Docking Study” (International Journal of Molecular Sciences, 2020).
